Assays:
Escherichia coli [1] = assay: Ratio of Kcat to Km for Escherichia coli beta-lactamase VIM-1 by spectrophotometry
Escherichia coli [2] = assay: Activity of Escherichia coli beta-lactamase VIM-1 by spectrophotometry

kcat/Km (Escherichia coli [1]) | Km (Escherichia coli [2]) | kcat (Escherichia coli [2]) | SMILES
1.05e+07 M⁻¹ s⁻¹ | 30 µM | 315 s⁻¹ | O=C(Cc1cccs1)N[C@@H]1C(=O)N2C(C(=O)[O-])=C(C[n+]3ccccc3)CS[C@H]12
5.6e+06 M⁻¹ s⁻¹ | 17 µM | 95 s⁻¹ | O=C(Cc1cccs1)N[C@@H]1C(=O)N2C(C(=O)O)=C(/C=C/c3ccc([N+](=O)[O-])cc3[N+](=O)[O-])CS[C@H]12

The next lines start with the compound.

SMILES | kcat/Km (Escherichia coli [1]) | Km (Escherichia coli [2]) | kcat (Escherichia coli [2])
CC1(C)S[C@@H]2[C@H](NC(=O)[C@H](NC(=O)N3CCNC3=O)c3ccccc3)C(=O)N2[C@H]1C(=O)O | 1.25e+07 M⁻¹ s⁻¹ | 120 µM | 1500 s⁻¹
CC1(C)S[C@@H]2[C@H](NC(=O)Cc3ccccc3)C(=O)N2[C@H]1C(=O)O | 36000 M⁻¹ s⁻¹ | 840 µM | 
CCN1CCN(C(=O)N[C@@H](C(=O)N[C@@H]2C(=O)N3[C@@H]2SC(C)(C)[C@@H]3C(=O)O)c2ccccc2)C(=O)C1=O | 540000 M⁻¹ s⁻¹ | 3500 µM | 1900 s⁻¹
CO/N=C(\C(=O)N[C@@H]1C(=O)N2C(C(=O)O)=C(COC(C)=O)CS[C@H]12)c1csc(N)n1 | 680000 M⁻¹ s⁻¹ | 250 µM | 170 s⁻¹
